Data set [1] in a line: Antiasthmatic effect, oral (protection against histamine spray 30 min after oral administration in guinea-pigs). It is filed as in vivo. The settings on record: for ED50: Cavia porcellus, 0.5 h, read-out: Antiasthmatic effect, Oral (a), ED50; for b/a: ratio of diarrhea ED50 (b) to oral antiasthmatic ED50 (a). The method, then: Guinea-pigs were sprayed for 10 sec with histamine 30 min after oral administration of test compounds and observed for 3 min. The percent of aminals protected was determined.

Data set [2] in a line: Antiasthmatic effect, aerosol (protection against sneezing induced by histamine aerosol in guinea-pigs). It is filed as in vivo. Particulars: aerosol of test compound 15 sec, histamine 0.1% aerosol. The method, then: Guinea-pigs were placed in a chamber and sprayed for 10 sec with an aerosol of histamine solution (0.1%) and onset of sneezing was recorded and animals with control time of 70-100 sec were selected. These animals were sprayed for 15 sec with an aerosol of test compounds. After 45 sec, sprayed histamine and observed for 3 min it was. […] The percent of animals protected was determined.

Data set [3] is described as follows: Diarrhea-producing effect, oral, guinea-pigs. Particulars: guinea pig, in vivo, 2hr to next morning, read-out: (A) Diarrhea-producing effect (b), ED50. The procedure: II. Diaarrhea-producing effect
Test compounds were administered orally to guinea-pigs. The appearance of diarrhea (loose or watery feces) at 2hr, 3hr, 4hr, 5hr and next morning was noted.

Data set [4] can be described thus: Effect on air-way resistance (Konzett and Rossler; histamine-induced broncho-constriction, intraduodenal administration). Type of data set: in vivo, guinea-pig. Particulars: Cavia porcellus, 0.5 h, read-out: (B) Effect on airway resistance, ED50. The method, then: III. Effect on air-way resistance
The air-way resistance of the guinea-pig lung was determined by the method of Konzett and Rossler (Arch. exp. Path. Pharmak., 195, 71-74(1940)). The bronchorelaxing activity of prostaglandins were expressed in terms of protective effect against broncho-constriction elicited by intravenous injection of histamine (3 μg/kg). Histamine was injected 30 min after intraduodenal administration of test compound to urethane anesthetized and artificially ventilated guinea-pigs.

[5] abbreviates: guinea-pigs, oral, histamine 30 min after administration.

The structures appear in SMILES notation. A value given as a limit tells only on which side of the number the result lay.

What is called ED50 is the midpoint of the dose-response relation. For the molecule `CCCC[C@@H](C)C(O)/C=C/[C@H]1[C@H](O)CC(=O)[C@@H]1C/C=C\CCCC(=O)O` (stereo partly drawn) [11α,15-dihydroxy-16(R)-methyl-9-oxo-5(cis)-13(trans)prostadienoic acid], in data set [1] (po), the ED50 was 0.0175 mg/kg. Besides, in data set [1], the b/a came out at 1.43. Further, the “Antiasthmatic effect, Aerosol, ED50” value in data set [2] worked out at 0.011 µg/mL. Further, the TD50 in data set [3] is 0.025 mg/kg.

For `COCCCCCC(O)/C=C/[C@H]1[C@H](O)CC(=O)[C@@H]1C/C=C\CCCC(=O)O` (stereo partly drawn) [20-methoxy-PGE2, 11α,15-dihydroxy-20-methoxy-9-oxo-5(cis)-13(trans)prostadienoic acid], the ED50 in data set [1] (setting [5]) is more than 0.8 mg/kg. Further, the “antiasthmatic effect upon oral administration (in words)” value in data set [1] (guinea-pigs, oral) was “no antiasthmatic effect upon oral administration”. Also, the “Antiasthmatic effect, Aerosol, ED50” value in data set [2] is 0.15 µg/mL.

Consider `COCCCCC(C)C(O)/C=C/[C@H]1[C@H](O)CC(=O)[C@@H]1C/C=C\CCCC(=O)OC` (stereo partly drawn) [Example 7 ([α]D^25-66.4°), 11α,15-dihydroxy-20-methoxy-16-methyl-9-oxo-5(cis)-13(trans)prostadienoic acid methyl ester], for which, in data set [1] (po), the ED50 was found to be 0.0053 mg/kg. Besides, the b/a in data set [1] stood at 9.62. Further, the TD50 in data set [3] worked out at 0.051 mg/kg.

As for `COCCCC[C@H](C)C(O)/C=C/[C@H]1[C@H](O)CC(=O)[C@@H]1C/C=C\CCCC(=O)OC` (stereo partly drawn) [Example 7 ([α]D^25-58.0°), 11α,15-dihydroxy-20-methoxy-16(S)-methyl-9-oxo-5(cis)-13(trans)prostadienoic acid methyl ester], in data set [1] (po), the median effective dose (ED50) worked out at 0.016 mg/kg. The b/a in data set [1] amounted to 9.06. For the same molecule, in data set [3], the TD50 turned out to be 0.145 mg/kg.

As for `COCCCC[C@H](C)C(O)/C=C/[C@H]1[C@H](O)CC(=O)[C@@H]1C/C=C\CCCC(=O)O` (stereo partly drawn) [Example 6, 11α,15-dihydroxy-20-methoxy-16(S)-methyl-9-oxo-5(cis)-13(trans)prostadienoic acid], in data set [1] (po), the ED50 was 0.71 mg/kg. For the same molecule, the b/a in data set [1] came out at 20.0. Besides, the TD50 in data set [3] is 0.14 mg/kg.

Turning to `COCCCCC(C)C(O)/C=C/[C@H]1[C@H](O)CC(=O)[C@@H]1C/C=C\CCCC(=O)O` (stereo partly drawn) [Example 3, 11α,15-dihydroxy-20-methoxy-16-methyl-9-oxo-5(cis)-13(trans)prostadienoic acid], the ED50 is 0.0135 mg/kg in data set [4] and 0.0098 mg/kg in data set [1] (po). The b/a in data set [1] is 12.2. Also, the “Antiasthmatic effect, Aerosol, ED50” value in data set [2] amounted to 0.037 µg/mL. Moreover, the TD50 in data set [3] worked out at 0.12 mg/kg.

As for `CCCCC(C)C(O)/C=C/[C@H]1[C@H](O)CC(=O)[C@@H]1C/C=C\CCCC(=O)O` (stereo partly drawn) [11α,15-dihydroxy-16-methyl-9-oxo-5(cis)-13(trans)prostadienoic acid], the median effective dose (ED50) in data set [1] (po) was found to be 0.025 mg/kg. Moreover, the b/a in data set [1] amounted to 4.0. Also, the “Antiasthmatic effect, Aerosol, ED50” value in data set [2] was 0.009 µg/mL. The TD50 in data set [3] was determined as 0.1 mg/kg.

On to `CCCCC[C@H](O)/C=C/[C@H]1[C@H](O)CC(=O)[C@@H]1C/C=C\CCCC(=O)O` [Prostaglandin E2], for which the ED50 in data set [4] (guinea-pigs, intraduodenal, histamine 3 μg/kg i.v. 30 min later) was more than 0.8 mg/kg; in data set [1] (setting [5]), more than 0.8 mg/kg. In addition, the “antiasthmatic effect upon oral administration (in words)” value in data set [1] (guinea-pigs, oral) is reported as “no antiasthmatic effect upon oral administration”. The “Antiasthmatic effect, Aerosol, ED50” value in data set [2] was found to be 0.15 µg/mL.

(Values after patent publication US4246280A, “20-Alkoxy-16-alkyl-prostadienoic acid derivatives” (priority 1974, dated 1981).)
